Source: patent US20250032490A1, “THERAPEUTIC REGIMENS FOR TREATMENT OF PAROXYSMAL NOCTURNAL HEMOGLOBINURIA” (Achillion Pharmaceuticals, Inc., priority 2017, published 2025)

Assays:
[1] = Phase 2 study in PNH subjects: lactate dehydrogenase levels; assay type: in vivo, human; details: Compound 1 100 mg TID + IV eculizumab
Experimental: (§1) The starting dose of compound 1 is based upon group assignment. The Group 1 dose is 100mg three times daily (TID). The Group 2 dose is 150 mg TID. The Group 3 dose is 200 mg TID. The Group 4 dose will receive the optimal dose determined from Groups 1-3.
All doses are taken approximately 15-30 minutes after completion of a meal or snack. […]
(§2) 2 subjects in the first dose level of 100 mg TID have been completed and data collected through 4 weeks. Data collected include lactate dehydrogenase (LDH) levels, hemoglobin levels, reticulocytes, PNH red blood cells (Type III) percentage, C3 Fragment Deposition percentage, and bilirubin levels and their changes from baseline.
Lactate dehydrogenase is a pharmacodynamic marker that is measured from blood drawn on Day 1, Week 1, Week 2, and Week 4 (FIGS. 13A & 13B and Table 15). High levels of LDH in the blood can be an indication of hemolysis.

[2] = Phase 2 study in PNH subjects: hemoglobin levels; assay type: in vivo, human; details: Compound 1 100 mg TID + IV eculizumab
Experimental: as §1
(§3) All doses are taken approximately 15-30 minutes after completion of a meal or snack.
(§4) This will be followed by a long-term extension phase.
as §2
Free hemoglobin is a pharmacodynamic marker that is measured from blood drawn on Day 1, Week 1, Week 2, and Week 4 (FIGS. 14A & 14B and Table 16). Low levels of hemoglobin is a sign of hemolytic anemia.

[3] = system: PNH Type III red blood cells; assay: Phase 2 study in PNH subjects: PNH red blood cell (Type III) percentage; assay type: in vivo, human; details: Compound 1 100 mg TID + IV eculizumab
Experimental: as §1, §3, §4, §2
Measuring the percentage of PNH Type III red blood cells is a pharmacodynamic marker that is measured by flow cytometry, which provides information on cell size, shape, and percentage of a type of cell. This assay determines whether CD55 and CD59 are missing from the surface of red blood cells. These proteins help protect normal cells from hemolysis. PNH Type III cells are extremely sensitive to the complement system and hemolysis. PNH Type III cell percentage is measured from plasma drawn on Day 1, Week 2, and Week 4 (FIGS. 16A & 16B and Table 18).

C3 fragment deposition = assay: Phase 2 study in PNH subjects: C3 fragment deposition percentage; assay type: in vivo, human
Experimental: C3 fragment deposition is measured using blood by flow cytometry that would be known to those of skill in the art. In a typical protocol, a blood sample is collected from eculizumab-treated PNH patients or healthy individuals. Erythrocytes are harvested by centrifugation, washed with PBS several times until the supernatant remains clear. C3 fragment deposition on the PNH erythrocytes membrane is measured by flow cytometry using FITC-conjugated anti-C3c, PE conjugated anti-CD47 and APC-conjugated anti-CD59 following dilution of reaction mixtures in FC buffer. Intact and fragmented PNH erythrocytes are identified by anti-CD47 (positive) and anti-CD59 (negative) staining C3 fragment deposition is assessed by anti-C3c staining.
as §1, §3, §4, §2
Measurement of C3 fragment deposition percentage is a pharmacodynamic marker that is measured by flow cytometry of subject plasma samples collected on Day 1, Week 2, and Week 4 (FIGS. 17A & 17B and Table 19). Uncontrolled C3 activation due to the absence of CD55 on red blood cells may result in opsonization of red blood cells, leading to clinically meaningful extravascular hemolysis.

rabbit erythrocytes = assay: CAP-mediated hemolysis assay with rabbit erythrocytes; assay type: cell-based; details: Oryctolagus cuniculus, Erythrocyte; AP activity in vitro
[4] = subject 003-001, DAY 1 (baseline)
[5] = subject 003-002, DAY 1 (baseline)

With `CC(=O)c1nn(CC(=O)N2C[C@H](F)C[C@H]2C(=O)Nc2cccc(Br)n2)c2ccc(-c3cnc(C)nc3)cc12` [Compound 1, (2S,4R)-1-(2-(3-acetyl-5-(2-methylpyrimidin-5-yl)-1H-indazol-1-yl)acetyl)-N-(6-bromopyridin-2-yl)-4-fluoropyrrolidine-2-carboxamide] the “LDH Observed” value [1, 4] was 357 U/L, the “LDH CFB (change from baseline)” value ([1]; subject 003-001, DAY 1) was 0 U/L and the “LDH CFB (change from baseline)” value ([1]; subject 003-001, WEEK 1) was −83 U/L. The “LDH Observed” value ([1]; subject 003-001, WEEK 1) was 274 U/L, the “LDH CFB (change from baseline)” value ([1]; subject 003-001, WEEK 2) was −105 U/L and the “LDH Observed” value ([1]; subject 003-001, WEEK 2) was 252 U/L. For the same compound, the “LDH CFB (change from baseline)” value ([1]; subject 003-001, WEEK 4) was −86 U/L, the “LDH Observed” value ([1]; subject 003-001, WEEK 4) was 271 U/L and the “LDH Observed” value [1, 5] was 210 U/L. The “LDH CFB (change from baseline)” value ([1]; subject 003-002, DAY 1) was 0 U/L, the “LDH CFB (change from baseline)” value ([1]; subject 003-002, WEEK 1) was −52 U/L and the “LDH Observed” value ([1]; subject 003-002, WEEK 1) was 158 U/L. The “LDH CFB (change from baseline)” value ([1]; subject 003-002, WEEK 2) was −40 U/L, the “LDH Observed” value ([1]; subject 003-002, WEEK 2) was 170 U/L and the “LDH CFB (change from baseline)” value ([1]; subject 003-002, WEEK 4) was −31 U/L. The “LDH Observed” value ([1]; subject 003-002, WEEK 4) was 179 U/L, the “HEMOGLOBIN Observed” value [2, 4] was 5.0 g/dL and the “HEMOGLOBIN CFB (change from baseline)” value ([2]; subject 003-001, DAY 1) was 0.0 g/dL. The “HEMOGLOBIN CFB (change from baseline)” value ([2]; subject 003-001, WEEK 1) was 1.1 g/dL, the “HEMOGLOBIN Observed” value ([2]; subject 003-001, WEEK 1) was 6.1 g/dL and the “HEMOGLOBIN CFB (change from baseline)” value ([2]; subject 003-001, WEEK 2) was 2.0 g/dL. The “HEMOGLOBIN Observed” value ([2]; subject 003-001, WEEK 2) was 7.0 g/dL, the “HEMOGLOBIN CFB (change from baseline)” value ([2]; subject 003-001, WEEK 4) was 2.6 g/dL and the “HEMOGLOBIN Observed” value ([2]; subject 003-001, WEEK 4) was 7.6 g/dL. The “HEMOGLOBIN Observed” value [2, 5] was 9.8 g/dL, the “HEMOGLOBIN CFB (change from baseline)” value ([2]; subject 003-002, DAY 1) was 0.0 g/dL and the “HEMOGLOBIN CFB (change from baseline)” value ([2]; subject 003-002, WEEK 1) was 1.4 g/dL. The “HEMOGLOBIN Observed” value ([2]; subject 003-002, WEEK 1) was 11.2 g/dL, the “HEMOGLOBIN CFB (change from baseline)” value ([2]; subject 003-002, WEEK 2) was 1.8 g/dL and the “HEMOGLOBIN Observed” value ([2]; subject 003-002, WEEK 2) was 11.6 g/dL. For the same compound, the “HEMOGLOBIN CFB (change from baseline)” value ([2]; subject 003-002, WEEK 4) was 2.9 g/dL, the “HEMOGLOBIN Observed” value ([2]; subject 003-002, WEEK 4) was 12.7 g/dL and the “PNH RBC (TYPE III) Observed” value [3, 4] was 41%. For the same compound, the “PNH RBC (TYPE III) CFB (change from baseline)” value ([3]; subject 003-001, DAY 1) was 0%, the “PNH RBC (TYPE III) CFB (change from baseline)” value ([3]; subject 003-001, WEEK 2) was 21% and the “PNH RBC (TYPE III) Observed” value ([3]; subject 003-001, WEEK 2) was 62%. The “PNH RBC (TYPE III) CFB (change from baseline)” value ([3]; subject 003-001, WEEK 4) was 29%, the “PNH RBC (TYPE III) Observed” value ([3]; subject 003-001, WEEK 4) was 70% and the “PNH RBC (TYPE III) Observed” value [3, 5] was 50%. For the same compound, the “PNH RBC (TYPE III) CFB (change from baseline)” value ([3]; subject 003-002, DAY 1) was 0%, the “PNH RBC (TYPE III) CFB (change from baseline)” value ([3]; subject 003-002, WEEK 2) was 10% and the “PNH RBC (TYPE III) Observed” value ([3]; subject 003-002, WEEK 2) was 60%. For the same compound, the “PNH RBC (TYPE III) CFB (change from baseline)” value ([3]; subject 003-002, WEEK 4) was 18%, the “PNH RBC (TYPE III) Observed” value ([3]; subject 003-002, WEEK 4) was 68% and the “C3 FRAGMENT DEPOSITION (%) CFB (change from baseline)” value (C3 fragment deposition; PNH subject 003-001, DAY 1) was 0.00%. For the same compound, the “C3 FRAGMENT DEPOSITION (%) Observed” value (C3 fragment deposition; PNH subject 003-001, DAY 1 (baseline), flow cytometry) was 2.60%, the “C3 FRAGMENT DEPOSITION (%) CFB (change from baseline)” value (C3 fragment deposition; PNH subject 003-001, WEEK 2) was −0.50% and the “C3 FRAGMENT DEPOSITION (%) Observed” value (C3 fragment deposition; PNH subject 003-001, WEEK 2, flow cytometry) was 2.10%. The “C3 FRAGMENT DEPOSITION (%) CFB (change from baseline)” value (C3 fragment deposition; PNH subject 003-001, WEEK 4) was −0.50%, the “C3 FRAGMENT DEPOSITION (%) Observed” value (C3 fragment deposition; PNH subject 003-001, WEEK 4, flow cytometry) was 2.10% and the “C3 FRAGMENT DEPOSITION (%) CFB (change from baseline)” value (C3 fragment deposition; PNH subject 003-002, DAY 1) was 0.00%. The “C3 FRAGMENT DEPOSITION (%) Observed” value (C3 fragment deposition; PNH subject 003-002, DAY 1 (baseline), flow cytometry) was 4.20%, the “C3 FRAGMENT DEPOSITION (%) CFB (change from baseline)” value (C3 fragment deposition; PNH subject 003-002, WEEK 2) was −3.10% and the “C3 FRAGMENT DEPOSITION (%) Observed” value (C3 fragment deposition; PNH subject 003-002, WEEK 2, flow cytometry) was 1.10%. For the same compound, the “C3 FRAGMENT DEPOSITION (%) CFB (change from baseline)” value (C3 fragment deposition; PNH subject 003-002, WEEK 4) was −3.10%, the “C3 FRAGMENT DEPOSITION (%) Observed” value (C3 fragment deposition; PNH subject 003-002, WEEK 4, flow cytometry) was 1.10% and the IC50 (rabbit erythrocytes) was 27 nM.
